Data published in the supplement of paper PMC10307832.

Key:
Experiment in all cases: relative viability (nuclei count vs DMSO), 5 days (fraction); higher = more cells survive
[1] = compound: C/C(=N\NC(=S)N1CCC1)/C2=CC=CC=N2 + COc1cc2c(Oc3ccc(NC(=O)C4(C(=O)Nc5ccc(F)cc5)CC4)cc3F)ccnc2cc1OCCCN1CCOCC1 [Foretinib] (partner 0.25 µM)
How it was run: (§1)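 Relative viability equals treated-well nuclei counts divided by vehicle-well nuclei counts. Counts came from 4× images of lung cancer cell lines grown in 1536-well plates for 5 days after pin-tool dosing on the day after seeding. Dosing used one drug alone or a fixed anchor-drug dose plus five library-drug doses (not always all listed) in √10 steps, and values are medians of duplicate plates.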

[2] = compound: C/C(=N\NC(=S)N1CCC1)/C2=CC=CC=N2 + NC(=O)Nc1cc(-c2cccc(F)c2)sc1C(=O)N[C@H]1CCCNC1 [AZD7762] (partner 0.2 µM)
How it was run: as §1

[3] = compound: C/C(=N\NC(=S)N1CCC1)/C2=CC=CC=N2 + O=C(CCCCCCC(=O)Nc1ccccc1)NO [Vorinostat] (partner 1 µM)
How it was run: as §1

[4] = compound: C/C(=N\NC(=S)N1CCC1)/C2=CC=CC=N2 + CS(=O)(=O)N1CCN(Cc2cc3nc(-c4cccc5[nH]ncc45)nc(N4CCOCC4)c3s2)CC1 [Pictilisib] (partner 1 µM)
How it was run: as §1

| Cell Line | relative viability ([1]; first compound 0.05 µM) | relative viability ([1]; first compound 0.1581 µM) | relative viability ([1]; first compound 0.5 µM) | relative viability ([1]; first compound 1.581 µM) | relative viability ([1]; first compound 5 µM) | relative viability ([2]; first compound 0.05 µM) | relative viability ([2]; first compound 0.1581 µM) | relative viability ([2]; first compound 0.5 µM) | relative viability ([2]; first compound 1.581 µM) | relative viability ([2]; first compound 5 µM) | relative viability ([3]; first compound 0.05 µM) | relative viability ([3]; first compound 0.1581 µM) | relative viability ([3]; first compound 0.5 µM) | relative viability ([3]; first compound 1.581 µM) | relative viability ([3]; first compound 5 µM) | relative viability ([4]; first compound 0.05 µM) | relative viability ([4]; first compound 0.1581 µM) | relative viability ([4]; first compound 0.5 µM) | relative viability ([4]; first compound 1.581 µM) | relative viability ([4]; first compound 5 µM) |
| --- | --- | --- | --- | --- | --- | --- | --- | --- | --- | --- | --- | --- | --- | --- | --- | --- | --- | --- | --- | --- |
| 201T | 0.213 | 0.209 | 0.19 | 0.181 | 0.177 | 0.287 | 0.285 | 0.273 | 0.211 | 0.233 | 0.351 | 0.349 | 0.315 | 0.301 | 0.281 | 0.438 | 0.494 | 0.444 | 0.389 | 0.344 |
| NCI-H838 | 0.259 | 0.255 | 0.216 | 0.217 | 0.18 | 0.579 | 0.684 | 0.653 | 0.616 | 0.637 | 0.286 | 0.266 | 0.249 | 0.17 | 0.178 | 0.172 | 0.207 | 0.167 | 0.102 | 0.157 |
| PC-14 | 0.141 | 0.113 | 0.129 | 0.0971 | 0.0805 | 0.08 | 0.12 | 0.106 | 0.0559 | 0.0985 | 0.0311 | 0.0568 | 0.041 | 0.041 | 0.0331 | 0.0639 | 0.0478 | 0.0584 | 0.0411 | 0.0523 |
| LK-2 | 0.134 | 0.183 | 0.202 | 0.133 | 0.146 | 0.0945 | 0.0875 | 0.049 | 0.086 | 0.0796 | 0.117 | 0.143 | 0.145 | 0.169 | 0.127 | 0.146 | 0.263 | 0.268 | 0.198 | 0.238 |
| NCI-H1944 | 0.624 | 0.38 | 0.181 | 0.143 | 0.166 | 0.227 | 0.169 | 0.145 | 0.102 | 0.129 | 0.17 | 0.154 | 0.137 | 0.126 | 0.135 | 0.229 | 0.305 | 0.241 | 0.182 | 0.182 |
| HCC-78 | 0.488 | 0.451 | 0.367 | 0.237 | 0.235 | 0.327 | 0.332 | 0.226 | 0.169 | 0.174 | 0.427 | 0.414 | 0.338 | 0.23 | 0.231 | 0.184 | 0.176 | 0.119 | 0.163 | 0.153 |
| NCI-H2405 | 0.263 | 0.313 | 0.31 | 0.251 | 0.264 | 0.215 | 0.245 | 0.253 | 0.186 | 0.23 | 0.241 | 0.267 | 0.252 | 0.217 | 0.222 | 0.185 | 0.206 | 0.232 | 0.209 | 0.275 |
| EMC-BAC-2 | 0.209 | 0.261 | 0.246 | 0.183 | 0.237 | 0.252 | 0.259 | 0.241 | 0.176 | 0.216 | 0.193 | 0.199 | 0.134 | 0.153 | 0.135 | 0.0912 | 0.166 | 0.173 | 0.193 | 0.19 |
| NCI-H596 | 0.461 | 0.725 | 0.208 | 0.199 | 0.272 | 0.331 | 0.321 | 0.312 | 0.244 | 0.297 | 0.27 | 0.255 | 0.253 | 0.241 | 0.23 | 0.251 | 0.257 | 0.223 | 0.212 | 0.277 |
| LCLC-97TM1 | 0.511 | 0.752 | 0.193 | 0.12 | 0.155 | 0.0761 | 0.0694 | 0.0641 | 0.0548 | 0.0577 | 0.071 | 0.0753 | 0.0572 | 0.0546 | 0.0434 | 0.101 | 0.141 | 0.0914 | 0.117 | 0.101 |
| H3255 | 0.241 | 0.245 | 0.241 | 0.242 | 0.29 | 0.302 | 0.308 | 0.286 | 0.244 | 0.237 | 0.334 | 0.288 | 0.179 | 0.274 | 0.289 | 0.244 | 0.23 | 0.192 | 0.222 | 0.203 |
| LXF-289 | 0.422 | 0.31 | 0.294 | 0.311 | 0.121 | 0.212 | 0.266 | 0.218 | 0.124 | 0.116 | 0.22 | 0.185 | 0.188 | 0.151 | 0.104 | 0.192 | 0.151 | 0.16 | 0.103 | 0.123 |
| LC-2-ad | 0.225 | 0.309 | 0.267 | 0.227 | 0.235 | 0.212 | 0.202 | 0.182 | 0.165 | 0.163 | 0.197 | 0.172 | 0.191 | 0.185 | 0.17 | 0.141 | 0.106 | 0.103 | 0.103 | 0.117 |
| A-427 | 0.146 | 0.185 | 0.172 | 0.122 | 0.124 | 0.188 | 0.173 | 0.159 | 0.156 | 0.178 | 0.187 | 0.198 | 0.171 | 0.158 | 0.186 | 0.109 | 0.142 | 0.129 | 0.116 | 0.125 |
| NCI-H322M | 0.282 | 0.32 | 0.31 | 0.295 | 0.336 | 0.316 | 0.333 | 0.381 | 0.37 | 0.414 | 0.337 | 0.345 | 0.358 | 0.465 | 0.438 | 0.23 | 0.38 | 0.275 | 0.263 | 0.287 |
| HCC-366 | 0.127 | 0.346 | 0.0579 | 0.0562 | 0.0285 | 0.0319 | 0.0257 | 0.0217 | 0.0308 | 0.0241 | 0.0207 | 0.0269 | 0.0257 | 0.0337 | 0.0244 | 0.0297 | 0.0246 | 0.029 | 0.0344 | 0.0355 |
